# Source: PubChem BioAssay AID256 (DTP/NCI, 2004)
# Several values for one entry are separate records, joined by “and”; a condition that tells them apart may be missing. Equal values may be shown once. Toxic doses and inconclusive results are not listed.
# Tested on: CD2F1 mice, L1210 leukemia ip, survival T/C
# Experiment: NCI In Vivo Anticancer Drug Screen. Data for tumor model L1210 Leukemia (intraperitoneal) in CD2F1 (CDF1) mice
# Conditions: higher = longer survival
# In short: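 Compound-dosed mice with transplantable tumor versus matched vehicle controls; endpoint ratio T/C reported.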
# [1] = endpoint: mean survival time, dose: 100.0 mg/kg/injection, schedule: Q04DX003 (ip), vehicle: saline with Tween-80
# [2] = endpoint: mean survival time, dose: 200.0 mg/kg/injection, schedule: Q04DX003 (ip), vehicle: saline with Tween-80
# [3] = endpoint: mean survival time, dose: 400.0 mg/kg/injection, schedule: Q04DX003 (ip), vehicle: saline with Tween-80
smiles,measurement,setting,value
CCCCCCCC/C=C\CCCCCCCC(=O)OCCCCCC,T/C,"endpoint: mean survival time, dose: 100.0 mg/kg/injection, schedule: Q04DX002 (ip), vehicle: saline with Tween-80",91 % of control
same,T/C,"endpoint: mean survival time, dose: 200.0 mg/kg/injection, schedule: Q04DX002 (ip), vehicle: saline with Tween-80",102 % of control
same,T/C,"endpoint: mean survival time, dose: 400.0 mg/kg/injection, schedule: Q04DX002 (ip), vehicle: saline with Tween-80",95 % of control
CN(C)CC(=O)N/N=C\c1ccc([N+](=O)[O-])s1,T/C,"endpoint: mean survival time, dose: 50.0 mg/kg/injection, schedule: Q01DX009 (ip), vehicle: saline",91 % of control
same,T/C,"endpoint: mean survival time, dose: 100.0 mg/kg/injection, schedule: Q01DX009 (ip), vehicle: saline",93 % of control
CN(CCCCN(C)CCOS(C)(=O)=O)CCOS(C)(=O)=O,T/C,"endpoint: mean survival time, dose: 0.4 mg/kg/injection, schedule: Q01DX009 (ip), vehicle: saline",112 % of control
same,T/C,"endpoint: mean survival time, dose: 0.8 mg/kg/injection, schedule: Q01DX009 (ip), vehicle: saline",115 % of control
same,T/C,"endpoint: mean survival time, dose: 3.6 mg/kg/injection, schedule: Q01DX001 (ip), vehicle: saline",110 % of control
same,T/C,"endpoint: mean survival time, dose: 4.0 mg/kg/injection, schedule: Q01DX009 (ip), vehicle: saline",103 % of control
same,T/C,"endpoint: mean survival time, dose: 8.3 mg/kg/injection, schedule: Q01DX001 (ip), vehicle: saline",118 % of control
same,T/C,"endpoint: mean survival time, dose: 12.5 mg/kg/injection, schedule: Q01DX001 (ip), vehicle: saline",150 % of control
same,T/C,"endpoint: mean survival time, dose: 25.0 mg/kg/injection, schedule: Q01DX001 (ip), vehicle: saline",156 % of control
CC1(C)N=C(N)N=C(N)N1c1cccc(/C=C/C=C/c2cccc([N+](=O)[O-])c2)c1,T/C,"endpoint: mean survival time, dose: 25.0 mg/kg/injection, schedule: Q04DX003 (ip), vehicle: saline with Tween-80",95 % of control
same,T/C,"endpoint: mean survival time, dose: 50.0 mg/kg/injection, schedule: Q04DX003 (ip), vehicle: saline with Tween-80",91 % of control
same,T/C,[1],89 % of control
COc1cccc(C(=O)c2ccncc2C)c1OC,T/C,"endpoint: mean survival time, dose: 12.5 mg/kg/injection, schedule: Q01DX009 (ip), vehicle: water",89 % of control
same,T/C,"endpoint: mean survival time, dose: 25.0 mg/kg/injection, schedule: Q01DX009 (ip), vehicle: water",93 % of control
same,T/C,"endpoint: mean survival time, dose: 50.0 mg/kg/injection, schedule: Q01DX009 (ip), vehicle: water",93 % of control
same,T/C,"endpoint: mean survival time, dose: 100.0 mg/kg/injection, schedule: Q01DX009 (ip), vehicle: water",93 % of control
same,T/C,"endpoint: mean survival time, dose: 200.0 mg/kg/injection, schedule: Q01DX009 (ip), vehicle: water",96 % of control
CC(=O)Nc1ccc([N+](=O)[O-])cc1,T/C,"endpoint: mean survival time, dose: 100.0 mg/kg/injection, schedule: Q01DX009 (ip), vehicle: saline with Tween-80",96 % of control
same,T/C,[1],90 % of control
same,T/C,"endpoint: mean survival time, dose: 200.0 mg/kg/injection, schedule: Q01DX009 (ip), vehicle: saline with Tween-80",101 % of control
same,T/C,[2],98 % of control
same,T/C,"endpoint: mean survival time, dose: 400.0 mg/kg/injection, schedule: Q01DX009 (ip), vehicle: saline with Tween-80",111 % of control
same,T/C,[3],98 % of control
O=CC(O)C(O)C(O)C(O)C(=O)O.O=CC(O)C(O)C(O)C(O)C(=O)O.[NH-]C1CCCCC1[NH-].[Pt+2] (stereo unspecified),T/C,"endpoint: mean survival time, dose: 1.56 mg/kg/injection, schedule: Q04DX003 (ip), vehicle: saline",118 % of control
same,T/C,"endpoint: mean survival time, dose: 3.12 mg/kg/injection, schedule: Q04DX003 (ip), vehicle: saline",114 % of control
same,T/C,"endpoint: mean survival time, dose: 6.25 mg/kg/injection, schedule: Q04DX003 (ip), vehicle: saline",191 % of control and 184 % of control
same,T/C,"endpoint: mean survival time, dose: 12.5 mg/kg/injection, schedule: Q04DX003 (ip), vehicle: saline",212 % of control and 168 % of control and 213 % of control
same,T/C,"endpoint: mean survival time, dose: 25.0 mg/kg/injection, schedule: Q04DX003 (ip), vehicle: saline",274 % of control [middle of 4 runs]
same,T/C,"endpoint: mean survival time, dose: 50.0 mg/kg/injection, schedule: Q04DX003 (ip), vehicle: saline",154 % of control and 216 % of control and 330 % of control
same,T/C,"endpoint: median survival time, dose: 3.12 mg/kg/injection, schedule: Q04DX003 (ip), vehicle: saline",104 % of control
same,T/C,"endpoint: median survival time, dose: 6.25 mg/kg/injection, schedule: Q04DX003 (ip), vehicle: saline",106 % of control
same,T/C,"endpoint: median survival time, dose: 12.5 mg/kg/injection, schedule: Q04DX003 (ip), vehicle: saline",106 % of control
same,T/C,"endpoint: median survival time, dose: 25.0 mg/kg/injection, schedule: Q04DX003 (ip), vehicle: saline",107 % of control
same,T/C,"endpoint: median survival time, dose: 50.0 mg/kg/injection, schedule: Q04DX003 (ip), vehicle: saline",111 % of control
same,T/C,"endpoint: median survival time, dose: 100.0 mg/kg/injection, schedule: Q04DX003 (ip), vehicle: saline",110 % of control
same,T/C,"endpoint: median survival time, dose: 200.0 mg/kg/injection, schedule: Q04DX003 (ip), vehicle: saline",116 % of control
CCOC(=O)Nc1n[nH]c(=S)[nH]c1=O,T/C,"endpoint: mean survival time, dose: 100.0 mg/kg/injection, schedule: Q01DX001 (ip), vehicle: carboxymethylcellulose (CMC)",96 % of control
same,T/C,"endpoint: mean survival time, dose: 200.0 mg/kg/injection, schedule: Q01DX001 (ip), vehicle: carboxymethylcellulose (CMC)",100 % of control
same,T/C,"endpoint: mean survival time, dose: 400.0 mg/kg/injection, schedule: Q01DX001 (ip), vehicle: carboxymethylcellulose (CMC)",96 % of control
C=C(CC(=O)O)C(=O)O,T/C,[1],93 % of control
same,T/C,[2],98 % of control
COC(=O)c1cc(N(CCCl)CCCl)ccc1N=Nc1ccc([N+](=O)[O-])cc1,T/C,"endpoint: mean survival time, dose: 100.0 mg/kg/injection, schedule: Q04DX003 (ip), vehicle: Klucel (hydroxypropylcellulose) (HPC)",109 % of control
same,T/C,"endpoint: mean survival time, dose: 200.0 mg/kg/injection, schedule: Q04DX003 (ip), vehicle: Klucel (hydroxypropylcellulose) (HPC)",115 % of control
same,T/C,"endpoint: mean survival time, dose: 400.0 mg/kg/injection, schedule: Q04DX003 (ip), vehicle: Klucel (hydroxypropylcellulose) (HPC)",117 % of control
CC(C)(O)C(Cl)S(=O)c1ccccc1 (stereo unspecified),T/C,"endpoint: mean survival time, dose: 37.5 mg/kg/injection, schedule: Q04DX003 (ip), vehicle: saline with Tween-80",100 % of control
same,T/C,"endpoint: mean survival time, dose: 75.0 mg/kg/injection, schedule: Q04DX003 (ip), vehicle: saline with Tween-80",100 % of control
same,T/C,"endpoint: mean survival time, dose: 85.0 mg/kg/injection, schedule: Q04DX002 (ip), vehicle: saline with Tween-80",88 % of control
same,T/C,"endpoint: mean survival time, dose: 150.0 mg/kg/injection, schedule: Q04DX003 (ip), vehicle: saline with Tween-80",103 % of control
same,T/C,"endpoint: mean survival time, dose: 190.0 mg/kg/injection, schedule: Q04DX002 (ip), vehicle: saline with Tween-80",90 % of control
same,T/C,"endpoint: mean survival time, dose: 300.0 mg/kg/injection, schedule: Q04DX003 (ip), vehicle: saline with Tween-80",102 % of control
Brc1cscc1-c1ccccc1,T/C,[1],93 % of control
same,T/C,[2],102 % of control
same,T/C,[3],98 % of control
COC(=O)Nc1ccccc1,T/C,"endpoint: mean survival time, dose: 100.0 mg/kg/injection, schedule: Q04DX003 (ip), vehicle: saline + alcohol",101 % of control
same,T/C,"endpoint: mean survival time, dose: 200.0 mg/kg/injection, schedule: Q04DX003 (ip), vehicle: saline + alcohol",98 % of control
same,T/C,"endpoint: mean survival time, dose: 400.0 mg/kg/injection, schedule: Q04DX003 (ip), vehicle: saline + alcohol",98 % of control
CN[C@H]1CCc2cc(OC)c(OC)c(OC)c2-c2ccc(OC)c(=O)cc21,T/C,"endpoint: mean survival time, dose: 0.63 mg/kg/injection, schedule: Q01DX009 (ip), vehicle: saline",113 % of control and 105 % of control
same,T/C,"endpoint: mean survival time, dose: 0.63 mg/kg/injection, schedule: Q01DX009 (ip), vehicle: water",97 % of control and 101 % of control
same,T/C,"endpoint: mean survival time, dose: 1.25 mg/kg/injection, schedule: Q01DX009 (ip), vehicle: saline",113 % of control and 116 % of control
same,T/C,"endpoint: mean survival time, dose: 1.25 mg/kg/injection, schedule: Q01DX009 (ip), vehicle: water",118 % of control and 108 % of control
same,T/C,"endpoint: mean survival time, dose: 2.5 mg/kg/injection, schedule: Q01DX007 (ip), vehicle: saline",121 % of control
same,T/C,"endpoint: mean survival time, dose: 2.5 mg/kg/injection, schedule: Q01DX009 (ip), vehicle: saline",121 % of control and 123 % of control and 124 % of control
same,T/C,"endpoint: mean survival time, dose: 2.5 mg/kg/injection, schedule: Q01DX009 (ip), vehicle: water",116 % of control and 107 % of control
same,T/C,"endpoint: mean survival time, dose: 2.5 mg/kg/injection, schedule: Q03DX003 (ip), vehicle: saline",102 % of control
same,T/C,"endpoint: mean survival time, dose: 2.5 mg/kg/injection, schedule: Q04DX003 (ip), vehicle: saline",95 % of control
same,T/C,"endpoint: mean survival time, dose: 5.0 mg/kg/injection, schedule: Q01DX007 (ip), vehicle: saline",122 % of control
same,T/C,"endpoint: mean survival time, dose: 5.0 mg/kg/injection, schedule: Q01DX009 (ip), vehicle: saline",120 % of control
same,T/C,"endpoint: mean survival time, dose: 5.0 mg/kg/injection, schedule: Q01DX009 (ip), vehicle: water",118 % of control
same,T/C,"endpoint: mean survival time, dose: 5.0 mg/kg/injection, schedule: Q03DX003 (ip), vehicle: saline",115 % of control
same,T/C,"endpoint: mean survival time, dose: 5.0 mg/kg/injection, schedule: Q04DX003 (ip), vehicle: saline",105 % of control
same,T/C,"endpoint: mean survival time, dose: 10.0 mg/kg/injection, schedule: Q01DX009 (ip), vehicle: water",124 % of control and 108 % of control
same,T/C,"endpoint: mean survival time, dose: 10.0 mg/kg/injection, schedule: Q04DX003 (ip), vehicle: saline",101 % of control
same,T/C,"endpoint: median survival time, dose: 0.63 mg/kg/injection, schedule: Q01DX009 (ip), vehicle: saline",114 % of control and 100 % of control
same,T/C,"endpoint: median survival time, dose: 1.25 mg/kg/injection, schedule: Q01DX009 (ip), vehicle: saline",114 % of control and 100 % of control
same,T/C,"endpoint: median survival time, dose: 2.5 mg/kg/injection, schedule: Q01DX009 (ip), vehicle: saline",121 % of control and 111 % of control
same,T/C,"endpoint: median survival time, dose: 5.0 mg/kg/injection, schedule: Q01DX009 (ip), vehicle: saline",150 % of control
CCOC(=O)c1cnc2c(cnn2CC)c1NN=C(C)C,T/C,"endpoint: mean survival time, dose: 100.0 mg/kg/injection, schedule: Q04DX003 (ip), vehicle: saline",105 % of control
same,T/C,"endpoint: mean survival time, dose: 200.0 mg/kg/injection, schedule: Q04DX003 (ip), vehicle: saline",105 % of control
